What is called IC50 is the concentration at which inhibition is half-maximal. Higher therefore signals weaker potency in that assay.

A value given as a limit tells only on which side of the number the result lay.

Our source for the IC50 values is patent US11319283B2, “Substituted cyclobutylbenzene compounds as indoleamine 2,3-dioxygenase (IDO) inhibitors” (MERCK SHARP & DOHME CORP., priority 2017, dated 2022).

Type in all cases: cell-based
The target in assay [1] is T1, IDO1 (Homo sapiens, UniProt P14902). In words: IDO1 Human Whole Blood Assay. Also on record: from tissue; host or cells: human whole blood from healthy donors, stimulated with LPS and IFNγ. The following applies: LPS and IFNγ 100 ng/mL, overnight (18 h), kynurenine by LC/MS/MS. Here is the method:
IDO1 Human Whole Blood Assay
Compounds to be tested were serially diluted in ten 3-fold steps in DMSO starting from 10 mM. […] LPS and IFNγ was prepared in RPMI to a 10× of final conc. (1000 ng/mL), final concentration is 100 ng/mL.
Human whole blood was drawn in sodium heparin coated tubes from healthy internal donors. […] of blood was transferred to each of the wells of a v-bottom 96 well plate. […] of compound was transferred from intermediate dilution plate, and incubated for 15 min. 30 μL from stimulants was then transferred to blood and mixed thoroughly. Plate was covered with breathable membrane and incubated at 37° C. for overnight (18 h).
On day 2 isotope labeled standard of kynurenine and tryptophan was made in water at 10× concentration and […] was added to the blood at […] final concentration. The assay plates were centrifuged at 300×G for 10 min with no brake to separate plasma from red blood cells. […] of plasma samples was removed without disturbing red blood cells. Plasma was diluted with RPMI in 1:1 ratio and proteins were precipitated out with two volume of Acetonitrile. The plates was centrifuged at 4000×G for 60 min. 20 mL of supernatant was carefully transferred to a 384 well plate contain 40 mL of 0.1% formic acid in water and analyzed by LC/MS/MS.
LC/MS/MS analyses were performed using Thermo Fisher's LX4-TSQ Quantum Ultra system. This system consists of four Agilent binary high-performance liquid chromatography (HPLC) pumps and a TSQ Quantum Ultra triple quadruple MS/MS instrument. For each sample, […] were injected onto an Atlantis T3 column (2.1 mm×150 mm, […]) from Waters. The mobile phase gradient pumped at 0.8 mL/min was used to elute the analytes from the column at 25° C. […] Mobile phase A consisted of 0.1% formic acid in water. Mobile phase B consisted of 0.1% of formic acid in acetonitrile. Data was acquired in positive mode using a HESI interface. The operational parameters for the TSQ Quantum Ultra instrument were a spray voltage of 4000 V, capillary temperature of 380° C., vaporizer temperature 400° C., shealth gas 60 arbitrary units, Aux gas 20 arbitrary units, tube lens 85 and collision gas 1.2 mTorr. […] The peak area was integrated by Xcalibur Quan software. The ratios between the kynurenine generated in the reaction and 2D6-Kynurenine spiked-in internal standard were used to generate percentage inhibition and IC50 values. Compounds were titrated and IC50's were calculated by 4 parameter sigmoidal curve fitting formula.

In assay [2] the target is T1, IDO1. In words: IDO1 Cellular Assay in Hela Cells Stimulated with IFNγ. The following applies: Hela cells stimulated with IFNγ 100 ng/mL, 300 uM L-tryptophan, about 48 hours, fluorescence readout. Set-up: endogenous in cells; host or cells: HeLa cells stimulated with IFNγ (100 ng/mL). Here is the method:
IDO1 Cellular Assay in Hela Cells Stimulated with IFNγ
Hela cells were cultured in complete Hela culture medium (90% EMEM, 10% heat-inactivated fetal bovine serum) and expanded to about 1×10^9 cells. The cells were then collected and frozen down at 1×10^7 cells/vial in 1 mL frozen medium (90% complete Hela culture medium, 10% DMSO)
Compounds to be tested were serially diluted in ten 3-fold steps in DMSO starting from 10 mM DMSO stocks in Echo low volume plate(s).
Frozen Hela cells were thawed and transferred into Hela assay medium (99% complete Hela culture medium, 1% Pen/Strep) with 20 mL medium/vial of cells. The cells were spun down at 250 g in a table top centrifuge for 5 min and suspended in same volume of Hela assay medium. The cells were then counted and adjusted to a density of 2×10^5 cells/ml in Hela assay medium. Sterile L-tryptophan were added to the cells with final concentration of 300 uM L-tryptophan. A small aliquot (2 mL/plate) of Hela cells were set aside and were not treated with IFNγ, to serve as the Max-E control.
Hela cells with and without IFNγ were dispensed to the respective wells of 384-well assay plates containing the compounds. The plates were incubated for about 48 hours at a 37° C., 5% CO2 incubator. Afterwards, […] of 0.5 M methyl isonipecotate in dimethyl sulfoxide were added into each well and the plates were sealed and incubated at 37° C. without CO2 overnight. The plates were centrifuged for 1 min at 200×g. The resulting fluorescence was measured in a Spectramax plate reader (Molecular Devices) with a 400 nm excitation filter and a 510 nm emission filter.
Potencies were calculated by linear least squares fit to the four parameter logistic IC50 equation.

The target in assay [3] is T2, TDO (Homo sapiens, UniProt P48775).
T2 construct: endogenous in cells; host or cells: SW48 cells (A2780 cells as control with minimal TDO activity)
T2 sequence (P48775 whole entry): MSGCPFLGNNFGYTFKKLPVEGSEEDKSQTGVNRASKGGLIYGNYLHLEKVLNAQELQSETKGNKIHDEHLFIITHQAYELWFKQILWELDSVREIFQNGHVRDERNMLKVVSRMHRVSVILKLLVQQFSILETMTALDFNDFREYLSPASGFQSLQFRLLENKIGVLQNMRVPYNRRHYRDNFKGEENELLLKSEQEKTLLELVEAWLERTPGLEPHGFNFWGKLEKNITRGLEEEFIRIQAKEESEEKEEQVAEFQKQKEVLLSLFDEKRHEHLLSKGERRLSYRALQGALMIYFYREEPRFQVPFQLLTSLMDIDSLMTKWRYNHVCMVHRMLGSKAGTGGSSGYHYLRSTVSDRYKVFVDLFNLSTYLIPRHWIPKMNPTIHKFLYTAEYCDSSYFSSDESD
In words: TDO Cellular Assay in Frozen SW48 Cells. The conditions noted are these: 300 uM L-tryptophan, about 48 hours, fluorescence readout. How it is done: TDO Cellular Assay in Frozen SW48 Cells
SW48 cells were cultured in complete RPMI culture medium (90% RPMI, 10% heat-inactivated fetal bovine serum).
Compounds to be tested were serially diluted in ten 3-fold steps in DMSO starting from 10 mM DMSO stocks in Echo low volume plate(s). […] The cells were spun down at 350 g in a table top centrifuge for 5 minutes and suspended in same volume of RPMI assay medium. […] Sterile L-tryptophan (Sigma, Cat # T0254) was added to the cells with final concentration of 300 uM.
SW48 and A2780 cells were dispensed to the respective wells of 384-well assay plates containing the compounds. The plates were incubated for about 48 hours at a 37° C., 5% CO2 incubator. Afterwards, 12 μL of 0.5 M ethyl isonipecotate (Sigma Aldrich, Cat # E33505) in dimethyl sulfoxide were added into each well and the plates were sealed and incubated at 37° C. without CO2 overnight. The plates were centrifuged for 1 minute at 200×g. The resulting fluorescence was measured in a Spectramax plate reader (Molecular Devices) with a 400 nm excitation filter and a 510 nm emission filter.
The fluorescence intensity of each well was corrected for the background observed in wells with A2780 cells and was expressed as a fraction of the intensity observed in wells of SW48 cells and DMSO only. Potencies were calculated by linear least squares fit to the four parameter logistic IC50 equation.

T1 sequence (P14902 whole entry): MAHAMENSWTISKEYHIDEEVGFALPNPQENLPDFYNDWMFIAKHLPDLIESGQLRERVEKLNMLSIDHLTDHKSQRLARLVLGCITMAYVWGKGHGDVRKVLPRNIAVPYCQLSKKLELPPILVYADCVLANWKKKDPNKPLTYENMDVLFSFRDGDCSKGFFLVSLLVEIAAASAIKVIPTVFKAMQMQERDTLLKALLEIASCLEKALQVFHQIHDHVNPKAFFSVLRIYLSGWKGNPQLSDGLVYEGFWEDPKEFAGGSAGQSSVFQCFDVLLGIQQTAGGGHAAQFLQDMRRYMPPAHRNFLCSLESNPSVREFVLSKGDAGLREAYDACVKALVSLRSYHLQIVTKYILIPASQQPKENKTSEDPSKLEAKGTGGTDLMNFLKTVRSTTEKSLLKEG

Turning to `CC1CC1NC(=O)C1(c2ccc(NC(=O)c3cccc(Cl)c3)cc2)CCC1` (single isomer, unassigned) [Example 21, 3-chloro-N-(4-(1-((2-methylcyclopropyl)carbamoyl)cyclobutyl)phenyl)benzamide], the IC50 was 797 nM in assay [1], 7 nM in assay [2] and at least 10000 nM in assay [3].

Take `N#Cc1ccc(C(=O)NC2(c3ccc(NC(=O)c4cccc(Cl)c4)cc3)CCC2)cc1` [Example 2, 3-Chloro-N-(4-(1-(4-cyanobenzamido)cyclobutyl)phenyl)benzamide]: the IC50 in assay [1] was 186 nM; in assay [2], 3 nM; in assay [3] it was at least 10000 nM.

For the molecule `O=C(Nc1ccc(C2(NC(=O)c3ccc(Cl)nc3)CCC2)cc1)c1cccc(Cl)c1` [Example 7, 6-chloro-N-(1-{4-[(3-chlorobenzene-1-carbonyl)amino]phenyl}cyclobutyl)pyridine-3-carboxamide], the IC50 in assay [1] is 345 nM; in assay [2], 4 nM; in assay [3], at least 10000 nM.

On to `O=C(Nc1ccc(C2(NC(=O)c3ccc(Cl)cc3)CCC2)cc1)c1cccc(Cl)c1` [Example 19, 3-Chloro-N-(4-(1-(4-chlorobenzamido)cyclobutyl)phenyl)benzamide], for which the IC50 in assay [1] is 336 nM; in assay [2], 2 nM; in assay [3], at least 10000 nM.

`O=C(Nc1ccc(C2(C(=O)Nc3ccc(F)cn3)CCC2)cc1)c1cccc(Cl)c1` [Example 28, 3-chloro-N-(4-{1-[(5-fluoropyridin-2-yl)carbamoyl]cyclobutyl}phenyl)benzamide]: the IC50 was 253 nM in assay [1], 4 nM in assay [2] and at least 10000 nM in assay [3].

As to `O=C(Nc1ccc(C2(C(=O)NC3CCCCC3)CCC2)cc1)c1cccc(Cl)c1` [Example 30, 3-chloro-N-{4-[1-(cyclohexylcarbamoyl)cyclobutyl]phenyl} benzamide], the IC50 in assay [1] was 795 nM; in assay [2] it was 5 nM; in assay [3], at least 10000 nM.

With `O=C(Nc1ccc(C2(C(=O)N[C@@H]3C[C@H]3C(F)(F)F)CCC2)cc1)c1cccc(Cl)c1` [Example 32], the IC50 in assay [1] is 738 nM; in assay [2], 12 nM; in assay [3], at least 10000 nM.

For `O=C(Nc1ccc(C2(C(=O)NC3CCC(F)(F)CC3)CCC2)cc1)c1cccc(Cl)c1` [Example 33, 3-chloro-N-(4-{1-[(4,4-difluorocyclohexyl)carbamoyl]cyclobutyl}phenyl) benzamide], the IC50 in assay [1] is 1880 nM; in assay [2] it was 15 nM; in assay [3], at least 10000 nM.

`Cn1ccc(NC(=O)C2(c3ccc(NC(=O)c4cccc(Cl)c4)cc3)CCC2)n1` [Example 35, 3-chloro-N-(4-{1-[(1-methyl-1H-pyrazol-3-yl)carbamoyl]cyclobutyl}phenyl)benzamide]: the IC50 is 1600 nM in assay [1], 24 nM in assay [2] and at least 10000 nM in assay [3].

Regarding `O=C(Nc1ccc(C2(C(=O)Nc3ccc(F)cc3)CC(F)(F)C2)cc1)c1cncc(Cl)c1` [Example 75, 5-chloro-N-(4-{3,3-difluoro-1-[(4-fluorophenyl)carbamoyl]cyclobutyl}phenyl) pyridine-3-carboxamide], the values for the IC50 in assay [2] and in assay [3] were 10 nM and at least 10000 nM, respectively.

For the molecule `O=C(Nc1ccc(C2(C(=O)Nc3ccc(F)cc3)CC(F)(F)C2)cc1)c1ccnc(C(F)(F)F)c1` [Example 76, N-(4-{3,3-difluoro-1-[(4-fluorophenyl)carbamoyl]cyclobutyl}phenyl)-2-(trifluoromethyl) pyridine-4-carboxamide], the 50% inhibitory concentration (IC50) in assay [2] is 20 nM; in assay [3] it was 7640 nM.

Take `CCCNC(=O)C1(c2ccc(NC(=O)c3ccc(F)c(Cl)c3)cc2)CCC1` [Example 78, 3-chloro-4-fluoro-N-{4-[1-(propylcarbamoyI)cyclobutyl]phenyl}benzamide]: the IC50 in assay [2] is 10 nM; in assay [3], at least 10000 nM.

Consider `CCCNC(=O)C1(c2ccc(NC(=O)c3cc(F)cc(Cl)c3)cc2)CCC1` [Example 79, 3-chloro-5-fluoro-N-{4-[1-(propylcarbamoyl)cyclobutyl]phenyl}benzamide], for which the IC50 in assay [2] was 11 nM; in assay [3], at least 10000 nM.

For the molecule `CCCNC(=O)C1(c2ccc(NC(=O)c3cc(Cl)cc(Cl)c3)cc2)CCC1` [Example 80, 3,5-dichloro-N-{4-[1-(propylcarbamoyl)cyclobutyl]phenyl}benzamide], the IC50 in assay [2] is 12 nM; in assay [3], at least 10000 nM.

In the case of `CCCNC(=O)C1(c2ccc(NC(=O)c3ccc(Cl)c(Cl)c3)cc2)CCC1` [Example 81, 3,4-dichloro-N-{4-[1-(propylcarbamoyl)cyclobutyl]phenyl}benzamide], the figures for the IC50 in assay [2] and in assay [3] were 13 nM and at least 10000 nM, respectively.

As to `O=C(Nc1ccc(C2(C(=O)NCCC(F)(F)F)CCC2)cc1F)c1cccc(Cl)c1` [Example 82, 3-Chloro-N-(2-fluoro-4-(1-((3,3,3-trifluoropropyl)carbamoyl)cyclobutyl)phenyl)benzamide], the results for the IC50 in assay [2] and in assay [3] were 117 nM and at least 10000 nM, respectively.

Consider `O=C(Nc1ccc(C2(C(=O)NCCC(F)(F)F)CCC2)cc1CO)c1cccc(Cl)c1` [Example 83, 3-Chloro-N-(2-(hydroxymethyl)-4-(1-((3,3,3-trifluoropropyl)carbamoyl)cyclobutyl)phenyl)benzamide], for which the values for the IC50 in assay [2] and in assay [3] were 128 nM and at least 10000 nM, respectively.

Take `CC(C)(C)/N=C/c1cc(C2(C(=O)NCCC(F)(F)F)CCC2)ccc1NC(=O)c1cccc(Cl)c1` [Example 84, N-(2-[(E)-(tert-butylimino)melhyl]-4-{1-[(3,3,3-trifluoropropyl)carbamoyl]cyclobutyl}phenyl)-3-chlorobenzamide]: the IC50 in assay [2] was 176 nM; in assay [3], at least 10000 nM.

Turning to `CCCNC(=O)C1(c2ccc(NC(=O)C3Cc4ccccc43)cc2)CCC1` (centres unmarked) [Example 87, N-{4-[1-(propylcarbamoyl)cyclobutyl]phenyl}bicyclo[4.2.0]octa-1,3,5-triene-7-carboxamide], the values for the IC50 in assay [2] and in assay [3] were 1050 nM and at least 10000 nM, respectively.
